Experimental data as given in patent US10238688B2, “Combination therapies for bladder cancer” (GENEDIA BIOTECH CO. LTD., priority 2015, dated 2019).

Legend:
5637 = test: MTT cell survival / IC50, 5637 cells; format: cell-based, human
Method: (§1) The clinical grade of the chemotherapeutics (NCI Dictionary of Cancer Terms) was provided by the First Affiliated Hospital of Harbin Medical University: Pirarubicin (Pi, Wanle, Shenzhen), Paclitaxel (Pa, Taiji, Sichuan), Adriamycin (Ad, Pfizer, Jiangsu), Epirubicin Hydrochloride (EH, Haizheng, Zhejiang), Hydroxycamptothecin (Hy, Lishizhen, Hubei), Cisplatin (Ci, Haosen, Jiangsu), Gemcitabine (Ge, Haosen, Jiangsu) and Mitomycin (Mi, Haizheng, Zhejiang). The drug induced cell death was determined by a thiazolyl […] (MTT, 490 nm reading) based cell proliferation assay in the cultured cells following treatment by various concentrations of drugs for 72 hours. The relative chemoresistance to each drug of all cell lines was calculated with the lowest IC50 as a reference. The overall chemoresistance of each cell line was described as “chemoresistance index”, the numerator of the total relative IC50 to all the drugs over the number of drugs to rank the overall resistance state of each cell line to the six chemotherapeutics collectively.
(§2) The relative IC50 (fold) of each drug of all nine cell lines was normalized to the lowest IC50 in the most sensitive cell line (FIG. 2G), to describe the single drug resistance of cell lines. The overall chemoresistance of each cell line, a “chemoresistance index” (the numerator of the total relative IC50 over the number of drugs) (FIG. 2G) were calculated to rank the overall resistance state of each cell line to this six chemotherapeutics.
(§3) Twenty six-drug combinations at the indicated doses were initially generated through a random number generator (using MATLAB MathWorks©, Natick, Mass., U.S.) (The upper half of Table 1). The cell survival (% over the not drug control) of treated cells was determined and then used for a calculation of the average cumulative cell survival (%, ACS: the sum of cell survival (%) per combination divided by the number of cell lines tested). ACS<30% was used to separate the effective from the not-effective combinations.

T24 = test: MTT cell survival / IC50, T24 cells; format: cell-based, human
Method: as §1, §2, §3

SV-HUC-1 = format: cell-based
Method: as §1, §2

Hypoxia pathway = test: Cignal Finder dual-luciferase pathway reporter, Hypoxia; format: cell-based, human; set-up: key to Relative activity, Hypoxia reporter: firefly/renilla ratio, background (negative control) subtracted; details: for Relative activity, Hypoxia reporter: luc/Renluc relative to negative control reporter, single drug at 4 folds vs EH/Ci/Mi combination
Method: (§4) The pathway analysis was performed with Qiagen's Cignal Finder Pathway Reporter Array systems according to the manufacturer's instructions. The pathway-focused dual-luciferase reporter construct was a mixture of an inducible transcription factor responsive firefly luciferase reporter and constitutively expressing renilla construct. Transcriptional response element (TRE) sequence response elements to each specific transcriptional factor triggered by the different signaling pathways are positioned before the TATA box of firefly luciferase reporter gene. The extent of activity of the reporter reflects the level of activity of the particular signaling pathway. CMV controlled renilla expression vector is co-transfected into the cell as an internal control. Non-inducible reporter construct that lacks the transcriptional factor binding sequence and could not be induced by any transcription factors is used as a negative control. Cells transfected with CMV directed firefly luciferase reporter gene serve as a positive control. Briefly, cells seeded in 6-well plates were transfected with Cignal finder pathway arrays according to the manufacturer's instructions (Qiagen). Then cells were seeded onto 96-well plates. Ci (6000 ng/mL), Mi (800 ng/mL), or EH (1000 ng/mL) and Ci/Mi/EH combination (Ci, 1500 ng/mL, Mi, 800 ng/mL and EH, 1000 ng/m L) were then added to the cells 24 h post-transfection. After 6 h of incubation with the different drugs at 37° C., cells were lysed and a dual luciferase assay (for firefly and renilla luciferase) was performed using a PromegaGloMax 20/20 illuminometer. The firefly luciferase activities were normalized over the renilla luciferase activities after background activity determined by luciferase activities of negative controls was subtracted. A triple test of cell survival under these drug doses was also performed by MTT assay following 18 h incubation at 37° C. […]

ER Stress pathway = test: Cignal Finder dual-luciferase pathway reporter, ER Stress; format: cell-based, human; details: for Relative activity, ER Stress reporter: luc/Renluc relative to negative control reporter, single drug at 4 folds vs EH/Ci/Mi combination
Method: as §4

[1] = tested on: Cell Cycle/pRb-E2F pathway; test: Cignal Finder dual-luciferase pathway reporter, Cell Cycle/pRb-E2F; format: cell-based, human; details: for Relative activity, Cell Cycle/pRb-E2F reporter: luc/Renluc relative to negative control reporter, single drug at 4 folds vs EH/Ci/Mi combination
Method: as §4

MAPK/ERK pathway = test: Cignal Finder dual-luciferase pathway reporter, MAPK/ERK; format: cell-based, human; details: for Relative activity, MAPK/ERK reporter: luc/Renluc relative to negative control reporter, single drug at 4 folds vs EH/Ci/Mi combination
Method: as §4

COC12C(COC(N)=O)C3=C(C(=O)C(C)=C(N)C3=O)N1CC1NC12 (stereo not shown) [Mi, [6-Amino-8a-methoxy-5-methyl-4,7-dioxo-1,1a,2,4,7,8,8a,8b-octahydroazireno [2′,3′:3,4]pyrrolo[1,2-a]indol-8-yl]methyl carbamate]
Cell survival (%) (5637; 5637, Table S3, ng/ml: Pi 40, Pa 160, EH 250, Ci 1500, Mi 200, 1=Ci/Mi, 2=EH/Ci/Mi, 3=Pa/Ci/Mi, 4=Pi/Ci/Mi): 53.16%
Single drug 4X Cell Survival (%) (5637; 5637, ng/ml: EH 1000, Ci 6000, Mi 800, Pi 160, Pa 640, Ge 20, EH/Ci/Mi regimen): 35.46%
Cell survival 72 hours (5637; 5637 cells, Table 4 (A)): 35.46%
ACS (%) (5637; 5637 cells, Table 4 (B)): 35.46%
Cell survival (%) (T24; Table S3, ng/ml: Pi 40, Pa 160, EH 250, Ci 1500, Mi 200, 1=Ci/Mi, 2=EH/Ci/Mi, 3=Pa/Ci/Mi, 4=Pi/Ci/Mi): 51.34%
Single drug 4X Cell Survival (%) (T24; ng/ml: EH 1000, Ci 6000, Mi 800, Pi 160, Pa 640, Ge 20, EH/Ci/Mi regimen): 19.72%
Single drug 4X Cell Survival (%) (SV-HUC-1; SV-HUC-1, ng/ml: EH 1000, Ci 6000, Mi 800, Pi 160, Pa 640, Ge 20, EH/Ci/Mi regimen): 91.17%
Cell survival 72 hours (SV-HUC-1; SV-HUC-1 cells, Table 4 (A)): 91.17%
ACS (%) (SV-HUC-1; SV-HUC-1 cells, Table 4 (B)): 91.17%
relative drug trigged pathway activity over the no-drug level, Hypoxia (Hypoxia pathway; 5637 cells): 3.31 fold
Relative activity, Hypoxia reporter (Hypoxia pathway; 5637 cells): 75.18
relative drug trigged pathway activity over the no-drug level, Hypoxia (Hypoxia pathway; Biu87 cells): 3.56 fold
Relative activity, Hypoxia reporter (Hypoxia pathway; Biu87 cells): 26.99
digitalized pathway activity, Hypoxia (Hypoxia pathway; H-bc cells): 0 (null (0) if neither of the above holds)
relative drug trigged pathway activity over the no-drug level, Hypoxia (Hypoxia pathway; H-bc cells): 0.58 fold
Relative activity, Hypoxia reporter (Hypoxia pathway; H-bc cells): 20.08
relative drug trigged pathway activity over the no-drug level, Hypoxia (Hypoxia pathway; SV-HUC-1 cells): 2.08 fold
Relative activity, Hypoxia reporter (Hypoxia pathway; SV-HUC-1 cells): 52.50
digitalized pathway activity, Hypoxia (Hypoxia pathway; UM-UC-3 cells): 0 (null (0) if neither of the above holds)
Relative activity, Hypoxia reporter (Hypoxia pathway; UM-UC-3 cells): 45.95
relative drug trigged pathway activity over the no-drug level, Hypoxia (Hypoxia pathway; Um-Uc-3 cells): 0.73 fold
relative drug trigged pathway activity over the no-drug level, ER Stress (ER Stress pathway; 5637 cells): 3.2 fold
Relative activity, ER Stress reporter (ER Stress pathway; 5637 cells): 83.09
relative drug trigged pathway activity over the no-drug level, ER Stress (ER Stress pathway; Biu87 cells): 1.65 fold
Relative activity, ER Stress reporter (ER Stress pathway; Biu87 cells): 36.14
relative drug trigged pathway activity over the no-drug level, ER Stress (ER Stress pathway; H-bc cells): 1.97 fold
Relative activity, ER Stress reporter (ER Stress pathway; H-bc cells): 44.48
relative drug trigged pathway activity over the no-drug level, ER Stress (ER Stress pathway; SV-HUC-1 cells): 1.51 fold
Relative activity, ER Stress reporter (ER Stress pathway; SV-HUC-1 cells): 155.20
Relative activity, ER Stress reporter (ER Stress pathway; UM-UC-3 cells): 109.59
relative drug trigged pathway activity over the no-drug level, ER Stress (ER Stress pathway; Um-Uc-3 cells): 1.34 fold
relative drug trigged pathway activity over the no-drug level, Cell Cycle/pRb-E2F ([1]; 5637 cells): 2.64 fold
Relative activity, Cell Cycle/pRb-E2F reporter ([1]; 5637 cells): 2.40
digitalized pathway activity, Cell Cycle/pRb-E2F ([1]; Biu87 cells): 0 (null (0) if neither of the above holds)
relative drug trigged pathway activity over the no-drug level, Cell Cycle/pRb-E2F ([1]; Biu87 cells): 1.46 fold
Relative activity, Cell Cycle/pRb-E2F reporter ([1]; Biu87 cells): 0.83
relative drug trigged pathway activity over the no-drug level, Cell Cycle/pRb-E2F ([1]; H-bc cells): 0.3 fold
Relative activity, Cell Cycle/pRb-E2F reporter ([1]; H-bc cells): 0.92
digitalized pathway activity, Cell Cycle/pRb-E2F ([1]; SV-HUC-1 cells): 0 (null (0) if neither of the above holds)
relative drug trigged pathway activity over the no-drug level, Cell Cycle/pRb-E2F ([1]; SV-HUC-1 cells): 1.39 fold
Relative activity, Cell Cycle/pRb-E2F reporter ([1]; SV-HUC-1 cells): 6.80
Relative activity, Cell Cycle/pRb-E2F reporter ([1]; UM-UC-3 cells): 2.17
relative drug trigged pathway activity over the no-drug level, Cell Cycle/pRb-E2F ([1]; Um-Uc-3 cells): 0.37 fold
relative drug trigged pathway activity over the no-drug level, MAPK/ERK (MAPK/ERK pathway; 5637 cells): 3.73 fold
Relative activity, MAPK/ERK reporter (MAPK/ERK pathway; 5637 cells): 194.59
relative drug trigged pathway activity over the no-drug level, MAPK/ERK (MAPK/ERK pathway; Biu87 cells): 2.04 fold
Relative activity, MAPK/ERK reporter (MAPK/ERK pathway; Biu87 cells): 1001.57
relative drug trigged pathway activity over the no-drug level, MAPK/ERK (MAPK/ERK pathway; H-bc cells): 0.45 fold
Relative activity, MAPK/ERK reporter (MAPK/ERK pathway; H-bc cells): 59.07
digitalized pathway activity, MAPK/ERK (MAPK/ERK pathway; SV-HUC-1 cells): 0 (null (0) if neither of the above holds)
relative drug trigged pathway activity over the no-drug level, MAPK/ERK (MAPK/ERK pathway; SV-HUC-1 cells): 1.42 fold
Relative activity, MAPK/ERK reporter (MAPK/ERK pathway; SV-HUC-1 cells): 335.00
digitalized pathway activity, MAPK/ERK (MAPK/ERK pathway; UM-UC-3 cells): 0 (null (0) if neither of the above holds)
Relative activity, MAPK/ERK reporter (MAPK/ERK pathway; UM-UC-3 cells): 151.35
relative drug trigged pathway activity over the no-drug level, MAPK/ERK (MAPK/ERK pathway; Um-Uc-3 cells): 1.06 fold
